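All cell lines were grown in 96-well plates and treated with compound for 48 hours. The concentration for 50% growth inhibition is given as GI50. Definition used: TGI = concentration required for complete inhibition of growth.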
Experiments:
Experiment in all cases: NCI tumour cell line growth inhibition, 48 h
A549 NSCLC = system: A549 NSCLC
A498 renal = system: A498 renal
SR leukemia = system: SR leukemia
RPMI-8226 leukemia = system: RPMI-8226 leukemia
OVCAR-5 ovarian = system: OVCAR-5 ovarian
TK-10 renal = system: TK-10 renal
RXF 393 renal = system: RXF 393 renal
HOP-62 NSCLC = system: HOP-62 NSCLC
SF-295 CNS = system: SF-295 CNS
MDA-MB-435 = system: MDA-MB-435
EKVX NSCLC = system: EKVX NSCLC
KM12 colon = system: KM12 colon
OVCAR-4 ovarian = system: OVCAR-4 ovarian
IGROV1 ovarian = system: IGROV1 ovarian
NCI-H226 lung = system: NCI-H226 lung
SF-268 CNS = system: SF-268 CNS
786-0 renal = system: 786-0 renal
HS 578T breast = system: HS 578T breast
MCF7 breast = system: MCF7 breast
SK-MEL-28 melanoma = system: SK-MEL-28 melanoma
UACC-257 melanoma = system: UACC-257 melanoma
LOX IMVI melanoma = system: LOX IMVI melanoma
DU-145 prostate = system: DU-145 prostate
K-562 leukemia = system: K-562 leukemia
SN12C renal = system: SN12C renal
UO-31 renal = system: UO-31 renal
T-47D breast = system: T-47D breast
HCT-15 colon = system: HCT-15 colon
OVCAR-8 ovarian = system: OVCAR-8 ovarian
OVCAR-3 ovarian = system: OVCAR-3 ovarian
BT-549 breast = system: BT-549 breast
SNB-75 CNS = system: SNB-75 CNS
CAKI-1 renal = system: CAKI-1 renal
HL-60(TB) leukemia = system: HL-60(TB) leukemia
SNB-19 CNS = system: SNB-19 CNS
SK-MEL-2 melanoma = system: SK-MEL-2 melanoma
U251 CNS = system: U251 CNS
SW-620 colon = system: SW-620 colon
MOLT-4 leukemia = system: MOLT-4 leukemia
PC-3 prostate = system: PC-3 prostate
NCI-H460 lung = system: NCI-H460 lung
UACC-62 melanoma = system: UACC-62 melanoma
NCI/ADR-RES ovarian = system: NCI/ADR-RES ovarian
ACHN renal = system: ACHN renal
SF-539 CNS = system: SF-539 CNS

`CN1CCN(Cc2ccc(NC(=O)c3[nH]ncc3Nc3ncnc4sccc34)cc2)CC1` was tested, and the GI50 (A549 NSCLC) was 263 nM, the TGI (A549 NSCLC) was greater than 100000 nM and the GI50 (A498 renal) was 17.2 nM. The TGI (A498 renal) was 1120 nM, the GI50 (SR leukemia) was 219 nM and the TGI (SR leukemia) was 730 nM. It also gave a GI50 (RPMI-8226 leukemia) of 360 nM, a TGI (RPMI-8226 leukemia) of 1380 nM and a GI50 (OVCAR-5 ovarian) of 508 nM. For the same compound, the TGI (OVCAR-5 ovarian) was greater than 100000 nM, the GI50 (TK-10 renal) was 2160 nM and the TGI (TK-10 renal) was 19600 nM. The GI50 (RXF 393 renal) was 171 nM, the TGI (RXF 393 renal) was 535 nM and the GI50 (HOP-62 NSCLC) was 437 nM. The TGI (HOP-62 NSCLC) was greater than 100000 nM, the GI50 (SF-295 CNS) was 325 nM and the TGI (SF-295 CNS) was greater than 100000 nM. For the same compound, the GI50 (MDA-MB-435) was 394 nM, the TGI (MDA-MB-435) was greater than 100000 nM and the GI50 (EKVX NSCLC) was 425 nM. It also gave a TGI (EKVX NSCLC) of 3530 nM, a GI50 (KM12 colon) of 297 nM and a TGI (KM12 colon) greater than 100000 nM. The GI50 (OVCAR-4 ovarian) was 326 nM, the TGI (OVCAR-4 ovarian) was 3920 nM and the GI50 (IGROV1 ovarian) was 396 nM. The TGI (IGROV1 ovarian) was greater than 100000 nM, the GI50 (NCI-H226 lung) was 169 nM and the TGI (NCI-H226 lung) was greater than 100000 nM. The GI50 (SF-268 CNS) was 446 nM, the TGI (SF-268 CNS) was 3730 nM and the GI50 (786-0 renal) was 351 nM. For the same compound, the TGI (786-0 renal) was greater than 100000 nM, the GI50 (HS 578T breast) was 60.4 nM and the TGI (HS 578T breast) was 2930 nM. It also gave a GI50 (MCF7 breast) of 126 nM, a TGI (MCF7 breast) greater than 100000 nM and a GI50 (SK-MEL-28 melanoma) of 857 nM. The TGI (SK-MEL-28 melanoma) was greater than 100000 nM, the GI50 (UACC-257 melanoma) was 2120 nM and the TGI (UACC-257 melanoma) was greater than 100000 nM. The GI50 (LOX IMVI melanoma) was 213 nM, the TGI (LOX IMVI melanoma) was 1070 nM and the GI50 (DU-145 prostate) was 350 nM. It also gave a TGI (DU-145 prostate) greater than 100000 nM, a GI50 (K-562 leukemia) of 235 nM and a TGI (K-562 leukemia) greater than 100000 nM. It also gave a GI50 (SN12C renal) of 361 nM, a TGI (SN12C renal) greater than 100000 nM and a GI50 (UO-31 renal) of 357 nM. The TGI (UO-31 renal) was 3540 nM, the GI50 (T-47D breast) was 699 nM and the TGI (T-47D breast) was greater than 100000 nM. It also gave a GI50 (HCT-15 colon) of 254 nM, a TGI (HCT-15 colon) greater than 100000 nM and a GI50 (OVCAR-8 ovarian) of 413 nM. The TGI (OVCAR-8 ovarian) was greater than 100000 nM, the GI50 (OVCAR-3 ovarian) was 306 nM and the TGI (OVCAR-3 ovarian) was 2540 nM. The GI50 (BT-549 breast) was 1230 nM, the TGI (BT-549 breast) was 5560 nM and the GI50 (SNB-75 CNS) was 23 nM. For the same compound, the TGI (SNB-75 CNS) was 2300 nM, the GI50 (CAKI-1 renal) was 563 nM and the TGI (CAKI-1 renal) was greater than 100000 nM. It also gave a GI50 (HL-60(TB) leukemia) of 334 nM, a TGI (HL-60(TB) leukemia) of 1070 nM and a GI50 (SNB-19 CNS) of 335 nM. For the same compound, the TGI (SNB-19 CNS) was greater than 100000 nM, the GI50 (SK-MEL-2 melanoma) was 368 nM and the TGI (SK-MEL-2 melanoma) was 2260 nM. The GI50 (U251 CNS) was 242 nM, the TGI (U251 CNS) was greater than 100000 nM and the GI50 (SW-620 colon) was 315 nM. It also gave a TGI (SW-620 colon) greater than 100000 nM, a GI50 (MOLT-4 leukemia) of 207 nM and a TGI (MOLT-4 leukemia) of 853 nM. For the same compound, the GI50 (PC-3 prostate) was 394 nM, the TGI (PC-3 prostate) was greater than 100000 nM and the GI50 (NCI-H460 lung) was 284 nM. The TGI (NCI-H460 lung) was greater than 100000 nM, the GI50 (UACC-62 melanoma) was 915 nM and the TGI (UACC-62 melanoma) was greater than 100000 nM. For the same compound, the GI50 (NCI/ADR-RES ovarian) was 1070 nM, the TGI (NCI/ADR-RES ovarian) was greater than 100000 nM and the GI50 (ACHN renal) was 223 nM. It also gave a TGI (ACHN renal) of 791 nM, a GI50 (SF-539 CNS) of 127 nM and a TGI (SF-539 CNS) of 1560 nM.

Source: PubChem BioAssay (NCI)
